Experimental data: patent US20120202287A1, “Stem Cell Culture Methods” (priority 2009, published 2012)

Each compound was assayed on SA121 hESCs (assay: General (monolayer) differentiation on matrigel in defined media, qRT-PCR of stem cell and differentiation markers after 14 days). Details: 10 uM, 14 days, qRT-PCR; NANOG at least 50% of EHNA level and PAX6 50% or less of untreated control.
Type: cell-based, human
Parameters: key to NO EHNA EFFECT: X: NO EHNA EFFECT; key to Full EHNA effect: those which maintained at least 50% of the level of NANOG-expression in comparison to EHNA and those that inhibited the expression of PAX6 to 50% or less than the value untreated controls were considered to have an EHNA-like effect
Procedure: In order to ascertain the efficacy of the compounds of the present invention, each compound was tested to determine whether it can maintain the stem cell marker NANOG and/or block the differentiation marker PAX6 in the face of differentiating conditions in a manner similar to EHNA. Cells enzymatically passaged onto matrigel-coated dishes and grown for 2 weeks in defined media with or without (control) compound addition were analysed by qRT-PCR to determine the level of NANOG and PAX6 expression.
For general differentiation experiments cells were passaged with trypsin onto matrigel coated twelve-well dishes in the fully supportive media (see above). The media was then changed to defined media 24 h later and any experimental component was first added at this point. The media and experimental supplement were changed daily.
Cells were routinely harvested for qRT-PCR analysis 14 days after the first addition of the experimental compound.
Total RNA was extracted using QIAGEN RNeasy kits (Qiagen Inc, Valencia, Calif., http://www.qiagen.com) and DNaseI treatment was performed using Turbo DNA-Free (Ambion). The absence of genomic DNA was confirmed by quantitative PCR (qPCR) (see below) using glyceraldehyde-3-phosphate dehydrogenase (GAPDH) Taqman primers and probe (MWG). cDNA was synthesized with 2 μg total RNA in 20 μl using Superscript II according to manufacturers' instructions ((Carlsbad, Calif., http://www.Invitrogen.com)). For qPCR, cDNAs were diluted 1 in 60 and 5 μl used per sample in a 15 μl total reaction volume. Platinum pPCR supermix UDG with Rox (Carlsbad, Calif., http://www.Invitrogen.com) was used according to the manufacturer's instructions using an Applied Biosystems 7300 real time PCR system (Applied Biosystems, Warrington, UK, http://europe.appliedbiosystems.com). Each reaction contained 0.6 μM of each primer and Taqman probe (MWG). Biological and technical replicates were each performed in triplicate for each sample, standardised to the GAPDH housekeeping gene and relative expression values were calculated using the 7300 system SDS software (Applied Biosystems, Warrington, UK, http://europe.appliedbiosystems.com).
Cells were enzymatically passaged onto matrigel-coated dishes and grown for 2 weeks in defined media. After 14 days, qRT-PCR was utilised to analyse the expression of a variety of markers of pluripotency and differentiation. In the graphs in FIG. 9 the value 1 was set to the expression level of the gene in undifferentiated SA121 hESCs.
Cells were enzymatically passaged onto matrigel-coated dishes and grown for 2 weeks in defined media (1× confluent T25 tissue culture flask was passaged to 2×12 well dishes) with or without (control) compound addition. All compounds were added at 10 uM and each was performed in triplicate. Media and compounds were changed every 48 hours. After 14 days RNA was isolated and qRT-PCR was utilised to analyse the expression of NANOG and PAX6. The results are illustrated in FIGS. 13 to 17.
In the graphs in FIGS. 13, 14 15, 16 and 17 the value 1 was set relative to the expression level of the gene in the control (no compound) samples. […] This experiment allowed the effect of the EHNA-related compounds to be measured directly in comparison to EHNA. […] Those which had on effect, to these levels, on either PAX6 or NANOG were considered to have a partial-EHNA effect.
With `CCCCCC[C@H]([C@H](C)O)n1cnc2c(N)ncnc21` [HWC46, (2S,3R)-3-(6-amino-9H-purin-9-yl)nonan-2-ol] the “Full EHNA effect” value was “X”. For `CCCCCCCCCn1ncc2c(N)ncnc21.Cl` [HWC31, 1-nonyl-1H-pyrazolo[3,4-d]pyrimidin-4-amine hydrochloride], the “Full EHNA effect” value was “X”. For `CCCCCCCCn1cc2c(N)ncnc2n1.Cl` [HWC41, 2-octyl-2H-pyrazolo[3,4-d]pyrimidin-4-amine hydrochloride], the “Full EHNA effect” value was “X”. For `CCCCCCCCn1ncc2c(N)ncnc21.Cl` [HWC40, 1-octyl-1H-pyrazolo[3,4-d]pyrimidin-4-amine hydrochloride], the “Full EHNA effect” value was “X”. In the case of `CCCCCCCCCCn1cnc2c(N)ncnc21` [HWC64, 9-(decan-1-yl)-9H-purin-6-amine], the “Full EHNA effect” value is reported as “X”. With `CCCCCCC(C(C)O)n1cnc2c(SC)ncnc21` (stereo not drawn) [HWC25, erythro-3-[6-(methylthio)-9H-purin-9-yl]nonan-2-ol] the “Full EHNA effect” value was “X”. With `CCCCCCCCCn1cc2c(N)ncnc2n1.Cl` [HWC30, 2-nonyl-2H-pyrazolo[3,4-d]pyrimidin-4-amine hydrochloride] the “Full EHNA effect” value was “X”. In the case of `CCCCCCCCCCCn1ncc2c(N)ncnc21.Cl` [HWC33, 1-undecyl-1H-pyrazolo[3,4-d]pyrimidin-4-amine hydrochloride], the “Full EHNA effect” value is reported as “X”.

Same assay, conditions: 10 uM, 14 days, qRT-PCR; neither NANOG nor PAX6 criterion met
With `CCCCCC[C@@H]([C@@H](C)O)n1cnc(C(N)=O)c1` [HWC36, erythro-1-(2-hydroxynonan-3-yl)-1H-imidazole-4-carboxamide] the “NO EHNA EFFECT” value was “X”. In the case of `CCCCCC[C@@H]([C@@H](C)O)n1cnc(C(=O)NC)c1` [HWC7, erythro-1-(2-hydroxynonan-3-yl)-N-methyl-1H-imidazole-4-carboxamide], the “NO EHNA EFFECT” value is reported as “X”. With `CCCCCCC(C(C)O)n1nnc2cnccc21` (racemic) [HWC54, (rac)-erythro-3-(1H-[1,2,3]triazolo[4,5-c]pyridin-1-yl)nonan-2-ol] the “NO EHNA EFFECT” value was “X”. In the case of `CCCCCC[C@@H](O)[C@H](C)n1cnc2c(OC)ncnc21` [HWC51, (2S,3R)-2-(6-methoxy-9H-purin-9-yl)nonan-3-ol], the “NO EHNA EFFECT” value is reported as “X”. `COc1ncnc2c1ncn2[C@H](CCc1ccccc1)[C@H](C)O.Cl` [HWC45, (2S,3R)-3-(6-methoxy-9H-purin-9-yl)-5-phenylpentan-2-ol hydrochloride] was tested, and the “NO EHNA EFFECT” value was “X”. In the case of `C[C@H](O)[C@@H](CCc1ccccc1)n1cnc2c(N)ncnc21.Cl` [HWC44, (2S,3R)-3-(6-amino-9H-purin-9-yl)-5-phenylpentan-2-ol hydrochloride], the “NO EHNA EFFECT” value is reported as “X”. In the case of `CCCCCCC(C(C)O)n1cnc2c(O)ncnc21.Cl` (stereo not drawn) [HWC14, erythro-9-(2-hydroxynonan-3-yl)-9H-purin-6-ol hydrochloride], the “NO EHNA EFFECT” value is reported as “X”. With `CCCCCC[C@@H]([C@@H](C)O)n1cnc2c(OC)ncnc21` [HWC53, (2R,3S)-3-(6-methoxy-9H-purin-9-yl)nonan-2-ol] the “NO EHNA EFFECT” value was “X”. `CCCCCC[C@H]([C@H](C)O)n1cnc2c(OC)ncnc21` [HWC47, (2S,3R)-3-(6-methoxy-9H-purin-9-yl)nonan-2-ol] was tested, and the “NO EHNA EFFECT” value was “X”. With `CCCCC[C@H]([C@H](C)O)n1cnc2c(N)ncnc21` [HWC59, (2S,3R)-3-(6-amino-9H-purin-9-yl)octan-2-ol] the “NO EHNA EFFECT” value was “X”. `CCCCCC[C@H](O)[C@@H](C)n1cnc2c(OC)ncnc21` [HWC49, (2R,3S)-2-(6-methoxy-9H-purin-9-yl)nonan-3-ol] was tested, and the “NO EHNA EFFECT” value was “X”.

Same assay, conditions: 10 uM, 14 days, qRT-PCR; only PAX6 50% or less of untreated control
In the case of `COCCOCCn1ncc2c(N)ncnc21` [HWC34, 1-[2-(2-methoxyethoxy)ethyl]-1H-pyrazolo[3,4-d]pyrimidin-4-amine], the “PARTIAL EHNA EFFECT (PAX6)” value is reported as “X (Those which had on effect, to these levels, on either PAX6 or NANOG were considered to have a partial-EHNA effect)”. With `Nc1ncnc2c1cnn2CCN1CCOCC1` [HWC28, 1-(2-morpholinoethyl)-1H-pyrazolo[3,4-d]pyrimidin-4-amine] the “PARTIAL EHNA EFFECT (PAX6)” value was “X (Those which had on effect, to these levels, on either PAX6 or NANOG were considered to have a partial-EHNA effect)”. `CCCCCC[C@H](O)[C@@H](C)n1cnc2c(N)ncnc21` [HWC48, (2R,3S)-2-(6-amino-9H-purin-9-yl)nonan-3-ol] was tested, and the “PARTIAL EHNA EFFECT (PAX6)” value was “X (Those which had on effect, to these levels, on either PAX6 or NANOG were considered to have a partial-EHNA effect)”. `CCCCCC[C@@H]([C@@H](C)O)n1cnc2cncnc21` [HWC12, erythro-3-(9H-purin-9-yl)nonan-2-ol] was tested, and the “PARTIAL EHNA EFFECT (PAX6)” value was “X (Those which had on effect, to these levels, on either PAX6 or NANOG were considered to have a partial-EHNA effect)”. With `CCCCCC[C@@H]([C@@H](C)O)n1cnc2c(N(C)C)ncnc21.Cl` [HWC17, erythro-3-[6-(dimethylamino)-9H-purin-9-yl]nonan-2-ol hydrochloride] the “PARTIAL EHNA EFFECT (PAX6)” value was “X (Those which had on effect, to these levels, on either PAX6 or NANOG were considered to have a partial-EHNA effect)”. With `COCCOCCn1cc2c(N)ncnc2n1` [HWC35, 2-[2-(2-methoxyethoxy)ethyl]-2H-pyrazolo[3,4-d]pyrimidin-4-amine] the “PARTIAL EHNA EFFECT (PAX6)” value was “X (Those which had on effect, to these levels, on either PAX6 or NANOG were considered to have a partial-EHNA effect)”. With `CCCCCCC(C(C)O)n1cnc2c(NN)ncnc21` (stereo not drawn) [HWC27, erythro-3-(6-hydrazinyl-9H-purin-9-yl)nonan-2-ol] the “PARTIAL EHNA EFFECT (PAX6)” value was “X (Those which had on effect, to these levels, on either PAX6 or NANOG were considered to have a partial-EHNA effect)”. `CCCCCCC(C(C)O)n1cnc2c(S)ncnc21.Cl` (stereo not drawn) [HWC13, erythro-3-(6-mercapto-9H-purin-9-yl)nonan-2-ol hydrochloride] was tested, and the “PARTIAL EHNA EFFECT (PAX6)” value was “X (Those which had on effect, to these levels, on either PAX6 or NANOG were considered to have a partial-EHNA effect)”. `CCCCCCC(C(C)O)n1c(C)nc2c(N)ncnc21.Cl` (stereo not drawn) [HWC24, erythro-3-(6-Amino-8-methyl-9H-purin-9-yl)nonan-2-ol hydrochloride] was tested, and the “PARTIAL EHNA EFFECT (PAX6)” value was “X (Those which had on effect, to these levels, on either PAX6 or NANOG were considered to have a partial-EHNA effect)”. In the case of `CCCCCC[C@@H]([C@@H](C)O)n1cnc2c(N)ncnc21` [HWC52, (2R,3S)-3-(6-amino-9H-purin-9-yl)nonan-2-ol], the “PARTIAL EHNA EFFECT (PAX6)” value is reported as “X (Those which had on effect, to these levels, on either PAX6 or NANOG were considered to have a partial-EHNA effect)”. For `CCCCCC[C@@H]([C@@H](C)O)n1cnc2cnccc21` [HWC8, erythro-3-(1H-imidazo[4,5-c]pyridin-1-yl)nonan-2-ol], the “PARTIAL EHNA EFFECT (PAX6)” value was “X (Those which had on effect, to these levels, on either PAX6 or NANOG were considered to have a partial-EHNA effect)”. For `CCCCCCC(C(C)O)n1cnc2c(Cl)ncnc21` (stereo not drawn) [HWC10, erythro-3-(6-Chloro-9H-purin-9-yl)nonan-2-ol], the “PARTIAL EHNA EFFECT (PAX6)” value was “X (Those which had on effect, to these levels, on either PAX6 or NANOG were considered to have a partial-EHNA effect)”.

Same assay, conditions: FIG. 10
In the case of `CCCCCCC(C(C)O)n1cnc2cccnc21.Cl` (stereo not drawn) [HWC-5, 3-(3H-imidazo[4,5-b]pyridin-3-yl)nonan-2-ol hydrochloride], the “prevention of differentiation of hESCs” value is reported as “can prevent differentiation of hESCs”.

Same assay, conditions: qRT-PCR, 14 days
In the case of `CCCCCCC(C(C)O)n1cnc2cccnc21.Cl` (stereo not drawn) [HWC-5, 3-(3H-imidazo[4,5-b]pyridin-3-yl)nonan-2-ol hydrochloride], the “PAX6 expression in differentiating conditions” value is reported as “inhibiting PAX6 expression”. In the case of `COc1ccc(Cc2nn3c([C@@H](CCCc4ccccc4)[C@@H](C)O)nc(C)c3c(=O)[nH]2)cc1OC` [BAY-60-7550, reference compound], the “PAX6 expression in differentiating conditions” value is reported as “nor did they inhibit PAX6 induction”.

Same assay, conditions: qRT-PCR, 14 days, FIG. 9a
In the case of `COc1ccc(Cc2nn3c([C@@H](CCCc4ccccc4)[C@@H](C)O)nc(C)c3c(=O)[nH]2)cc1OC` [BAY-60-7550, reference compound], the “stem cell marker expression (NANOG, ZFP42, POU5F1) in differentiating conditions” value is reported as “Neither BAY nor IBMX maintained stem cell marker expression”.

Same assay, conditions: qRT-PCR, 14 days, relative to untreated control
With `CCCCCCC(C(C)O)n1cnc2cccnc21.Cl` (stereo not drawn) [HWC-5, 3-(3H-imidazo[4,5-b]pyridin-3-yl)nonan-2-ol hydrochloride] the “NANOG expression in differentiating conditions” value was “capable of maintaining NANOG”.
